Test results as given in patent US10501449B2 (priority 2018, dated 2019).

What follows are compounds tested against hROMK (human Kir1.1) (Homo sapiens (Human), UniProt P48048) (assay: cell-based). Details: CHO T-Rex hROMK stable cell line; thallium flux; 10-point concentration response curve; read-out: Human ROMK Th Flux IC50.
Sequence of hROMK (human Kir1.1) (P48048 whole entry): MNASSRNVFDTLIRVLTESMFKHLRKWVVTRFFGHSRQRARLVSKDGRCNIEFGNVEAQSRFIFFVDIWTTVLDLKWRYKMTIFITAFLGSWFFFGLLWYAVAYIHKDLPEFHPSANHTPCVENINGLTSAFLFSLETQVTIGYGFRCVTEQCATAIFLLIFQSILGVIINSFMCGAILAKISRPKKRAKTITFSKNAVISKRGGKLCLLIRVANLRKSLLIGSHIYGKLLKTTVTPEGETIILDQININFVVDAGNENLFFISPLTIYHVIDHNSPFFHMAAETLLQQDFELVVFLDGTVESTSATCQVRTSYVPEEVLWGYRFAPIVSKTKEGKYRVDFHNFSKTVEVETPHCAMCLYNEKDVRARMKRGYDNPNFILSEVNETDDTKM

| SMILES | IC50 [nM] |
| --- | --- |
| CC(=O)NC1CCN(Cc2cnn(-c3cc(C)c(C#N)cn3)c2)CC1c1ccc2c(c1C)COC2=O (single isomer, unassigned) [Example 248-I, N-(1-((1-(5-cyano-4-methylpyridin-2-yl)-1H-pyrazol-4-yl)methyl)-3-(4-methyl-1-oxo-1,3-dihydroisobenzofuran-5-yl)piperidin-4-yl)acetamide] | 1500 |
| Cc1cc(-n2cc(CN3CCN[C@H](c4ccc5c(c4C)COC5=O)C3)nn2)nc(C)c1C#N [Example 186-I, (R)-2,4-dimethyl-6-(4-((3-(4-methyl-1-oxo-1,3-dihydroisobenzofuran-5-yl)piperazin-1-yl)methyl)-1H-1,2,3-triazol-1-yl)nicotinonitrile] | 18 |
| Cc1c([C@@H]2CN(Cc3cnn(-c4ccc5oc(=O)n(C)c5c4)c3)CC(=O)N2)ccc2c1COC2=O [Example 71-I, (R)-3-methyl-5-(4-((3-(4-methyl-1-oxo-1,3-dihydroisobenzofuran-5-yl)-5-oxopiperazin-1-yl)methyl)-1H-pyrazol-1-yl)benzo[d]oxazol-2(3H)-one] | 800 |
| Cc1cc(-n2cc(CN3CC(=O)N(C)[C@H](c4ccc5c(c4C)COC5=O)C3)cn2)ncc1C#N [Example 77-I, (R)-4-methyl-6-(4-((4-methyl-3-(4-methyl-1-oxo-1,3-dihydroisobenzo-furan-5-yl)-5-oxo-piperazin-1-yl)methyl)-1H-pyrazol-1-yl)nicotino-nitrile] | 820 |
| Cc1cc(-c2cnc(CN3CCN[C@H](c4ccc5c(c4C)COC5=O)C3)nc2)ncc1C#N [Example 183-I, (R)-4-methyl-6-(2-((3-(4-methyl-1-oxo-1,3-dihydroisobenzofuran-5-yl)piperazin-1-yl)methyl)pyrimidin-5-yl)nicotinonitrile] | 180 |
| COc1c(CN2C[C@@H](c3ccc4c(c3C)COC4=O)OC2=O)cnn1-c1cc(C)c(C#N)cn1 [Example 79-I, (R)-6-(5-methoxy-4-((5-(4-methyl-1-oxo-1,3-dihydroisobenzofuran-5-yl)-2-oxooxazolidin-3-yl)methyl)-1H-pyrazol-1-yl)-4-methyl-nicotinonitrile] | 320 |
| Cc1cc(-n2cc(CN3CC(F)C(c4ccc5c(c4C)COC5=O)C3)cn2)ncc1C#N (single isomer, unassigned) [Example 212-II, 6-(4-((3-fluoro-4-(4-methyl-1-oxo-1,3-dihydroisobenzofuran-5-yl)pyrrolidin-1-yl)methyl)-1H-pyrazol-1-yl)-4-methylnicotinonitrile] | 97 |
| CNC(=O)OC1CCN(Cc2cnn(-c3cc(C)c(C#N)cn3)c2)CC1c1ccc2c(c1C)COC2=O (single isomer, unassigned) [Example 258-I, 1-((1-(5-cyano-4-methylpyridin-2-yl)-1H-pyrazol-4-yl)methyl)-3-(4-methyl-1-oxo-1,3-dihydroisobenzofuran-5-yl)piperidin-4-yl methylcarbamate] | 250 |
| COC(=O)N1CCN(Cc2cnn(-c3cc(C)c(C#N)cn3)c2)C[C@H]1c1ccc2c(c1C)COC2=O [Example 24-I, Methyl (R)-4-((1-(5-cyano-4-methylpyridin-2-yl)-1H-pyrazol-4-yl)methyl)-2-(4-methyl-1-oxo-1,3-dihydroisobenzofuran-5-yl)piperazine-1-carboxylate] | 500 |
| Cc1c([C@@H]2CN(Cc3cn(-c4ccc5oc(=O)n(C)c5c4)nn3)CC(=O)N2)ccc2c1COC2=O [Example 72-I, (R)-3-methyl-5-(4-((3-(4-methyl-1-oxo-1,3-dihydroisobenzofuran-5-yl)-5-oxopiperazin-1-yl)methyl)-1H-1,2,3-triazol-1-yl)benzo[d] oxazol-2(3H)-one] | 550 |
| Cc1c([C@@H]2CN(Cc3ccc(-c4ccc(=O)n(C)c4)nc3)C[C@H](C)N2)ccc2c1COC2=O [Example 238-I, 1′-methyl-5-(((3S,5R)-3-methyl-5-(4-methyl-1-oxo-1,3-dihydroisobenzofuran-5-yl)piperazin-1-yl)methyl)-[2,3′-bipyridin]-6′(1′H)-one] | 470 |
| Cc1cc(-n2ncc(CN3C[C@H](C)N(O)[C@H](c4ccc5c(c4C)COC5=O)C3)n2)ncc1C#N [Example 246-I, 6-(4-(((3S,5R)-4-hydroxy-3-methyl-5-(4-methyl-1-oxo-1,3-dihydroisobenzofuran-5-yl)piperazin-1-yl)methyl)-2H-1,2,3-triazol-2-yl)-4-methylnicotinonitrile] | 870 |
| Cc1c([C@@H]2CN(Cc3nnc(-c4ccc(C#N)cn4)o3)CCN2)ccc2c1COC2=O [Example 62-I, (R)-6-(5-((3-(4-methyl-1-oxo-1,3-dihydroiso-benzofuran-5-yl)piper-azin-1-yl)methyl)-1,3,4-oxadiazol-2-yl) nicotinonitrile] | 170 |
| Cc1cc(-n2cc(C(O)CN3CCO[C@H](c4ccc5c(c4C)COC5=O)C3)cn2)ncc1C#N (single isomer, unassigned) [Example 18-I] | 870 |
| Cc1c([C@@H]2CN(Cc3cnn(-c4ccn(C(F)F)c(=O)c4)n3)C[C@H](C)N2)ccc2c1COC2=O [Example 270-I, 1-(difluoromethyl)-4-(4-(((3S,5R)-3-methyl-5-(4-methyl-1-oxo-1,3-dihydroisobenzofuran-5-yl)piperazin-1-yl)methyl)-2H-1,2,3-triazol-2-yl)pyridin-2(1H)-one] | 580 |
| Cc1c([C@@H]2CN(Cc3ccc(-c4ccnc(N5CCOC5=O)c4)nc3)C[C@H](C)N2)ccc2c1COC2=O [Example 174-I, 3-(5-(((3S,5R)-3-methyl-5-(4-methyl-1-oxo-1,3-dihydroisobenzofuran-5-yl)piperazin-1-yl)methyl)-[2,4′-bipyridin]-2′-yl)oxazolidin-2-one] | 220 |
| Cc1c(C#N)ccnc1-n1cc(CN2C[C@@H](c3ccc4c(c3C)COC4=O)N[C@@H](C)C2)cn1 [Example 202-I, 3-methyl-2-(4-(((3S,5R)-3-methyl-5-(4-methyl-1-oxo-1,3-dihdyroisobenzofuran-5-yl)piperazin-1-yl)methyl)-1H-pyrazol-1-yl)isonicotinonitrile] | 140 |
| Cc1c([C@@H]2CN(Cc3cnn(-c4ccnc5c4ccn5C)c3)CCO2)ccc2c1COC2=O [Example 177-I, (R)-4-methyl-5-(4-((1-(1-methyl-1H-pyrrolo[2,3-b]pyridin-4-yl)-1H-pyrazol-4-yl)methyl)morpholin-2-yl)isobenzofuran-1(3H)-one] | 500 |
| Cc1ncn(-c2ccc(CN3CC(=O)N[C@H](c4ccc5c(c4C)COC5=O)C3)cn2)n1 [Example 75-I, (R)-6-(4-methyl-1-oxo-1,3-dihydroisobenzo-furan-5-yl)-4-((6-(3-methyl-1H-1,2,4-triazol-1-yl)pyridin-3-yl)methyl) piperazin-2-one] | 680 |
| Cc1cn(-c2cc(C(F)(F)F)c(CN3CCN[C@H](c4ccc5c(c4C)COC5=O)C3)cn2)cn1 [Example 147-I, (R)-4-methyl-5-(4-((6-(4-methyl-1H-imidazol-1-yl)-4-(trifluoromethyl)pyridin-3-yl)methyl)piperazin-2-yl)isobenzofurna-1(3H)-one] | 87 |
| Cc1c([C@@H]2CN(Cc3ccc(-n4cnc(C#N)n4)nc3)CC(=O)N2)ccc2c1COC2=O [Example 73-I, (R)-1-(5-((3-(4-methyl-1-oxo-1,3-dihydroiso-benzofuran-5-yl)-5-oxo-piperazin-1-yl)methyl)pyridin-2-yl)-1H-1,2,4-triazole-3-carbonitrile] | 150 |
| Cc1cc(-n2cc(CN3CCO[C@@H](c4ccc5c(c4C)COC5=O)C3)cn2)ncc1C#N [Example 1-II, (S)-4-methyl-6-(4-((2-(4-methyl-1-oxo-1,3-dihydroisobenzofuran-5-yl)morpholino)methyl)-1H-pyrazol-1-yl) nicotinonitrile] | 800 |
| Cc1c([C@@H]2CN(Cc3cn(-c4ccnc(C(F)F)n4)cn3)C[C@H](C)N2)ccc2c1COC2=O [Example 271-I, 5-((2R,6S)-4-((1-(2-(difluoromethyl)pyrimidin-4-yl)-1H-imidazol-4-yl)methyl)-6-methylpiperazin-2-yl)-4-methylisobenzofuran-1(3H)-one] | 100 |
| Cc1cc(-n2cc(CN3C[C@@H](c4ccc5c(c4C)COC5=O)OCC3=O)cn2)ncc1C#N [Example 10-I, (R)-4-methyl-6-(4-((2-(4-methyl-1-oxo-1,3-dihydroisobenzofuran-5-yl)-5-oxomorpholino)methyl)-1H-pyrazol-1-yl)nicotinonitrile] | 620 |
| Cc1cc(-n2cc(CN3C[C@@H](c4ccc5c(c4C)COC5=O)N[C@@H](C)C3)oc2=O)ncc1C#N [Example 117-I, 4-methyl-6-(5-(((3S,5R)-3-methyl-5-(4-methyl-1-oxo-1,3-dihydroisobenzofuran-5-yl)piperazin-1-yl)methyl)-2-oxooxazol-3(2H)-yl)nicotinonitrile] | 34 |
| Cc1cc(-n2nnc(CN3C[C@@H](c4ccc5c(c4C)COC5=O)N[C@@H](C)C3)c2C)ncc1C#N [Example 176-I, 4-methyl-6-(5-methyl-4-(((3S,5R)-3-methyl-5-(4-methyl-1-oxo-1,3-dihydroisobenzofuran-5-yl)piperazin-1-yl)methyl)-1H-1,2,3-triazol-1-yl)nicotinonitrile] | 120 |
| CC(=O)N1CCN(Cc2cnn(-c3cc(C)c(C#N)cn3)c2)C[C@H]1c1ccc2c(c1C)COC2=O [Example 68-I, (R)-6-(4-((4-acetyl-3-(4-methyl-1-oxo-1,3-di-hydroisobenzofuran-5-yl)piperazin-1-yl)methyl)-1H-pyrazol-1-yl)-4-methylnicotinonitrile] | 1700 |
| Cc1c([C@@H]2CN(Cc3cn(-c4ccc5c(c4)OC(F)(F)O5)cn3)C[C@H](C)N2)ccc2c1COC2=O [Example 182-I, 5-((2R,6S)-4-((1-(2,2-difluorobenzo[d][1,3]dioxol-5-yl)-1H-imidazol-4-yl)methyl)-6-methylpiperazin-2-yl)-4-methylisobenzofuran-1(3H)-one] | 260 |
| Cc1c([C@@H]2CN(Cc3cnn(-c4cncc(C#N)c4)c3)CCO2)ccc2c1COC2=O [Example 42-I, (R)-5-(4-((2-(4-methyl-1-oxo-1,3-dihydroiso-benzofuran-5-yl)morpholino)methyl)-1H-pyrazol-1-yl)nicotinonitrile] | 490 |
